Measurements as given in patent US7651978B2, “Selective herbicides based on a substituted phenylsulphonylaminocarbonyl-triazolinone” (Arysta LifeScience North America, LLC, priority 1998, dated 2010).

How the values were obtained:
Format in all cases: in vivo
Alopecurus [1] = assay: Post-emergence test/greenhouse; conditions: 504 h, 250 g ai./ha, after three weeks, read-out: degree of damage, Alopecurus
Procedure: (§1) Post-Emergence Test/Greenhouse [table] To produce a suitable preparation of active compound, 1 part by weight of active compound is mixed with the stated amount of solvent, the stated amount of emulsifier is added and the concentrate is diluted with water to the desired concentration. Test plants which have a height of 5-15 cm are sprayed with the preparation of active compound such that the particular amounts of active compound desired are applied per unit area. The concentration of the spray liquor is chosen so that the particular amounts of active compound desired are applied in 500 ml of water/ha. After three weeks, the degree of damage to the plants is assessed in % damage in comparison to the development of the untreated control. The figures denote: • 0%=no effect (like untreated control) • 100%=total destruction

Setaria [2] = assay: Post-emergence test/greenhouse; conditions: 250 g ai./ha, after three weeks
Procedure: as §1

Avena [3] = assay: Post-emergence test/greenhouse; conditions: 250 g ai./ha, after three weeks
Procedure: as §1

Alopecurus [4] = assay: Pre-emergence test/greenhouse; conditions: 504 h, 250 g ai./ha, after three weeks, read-out: degree of damage, Alopecurus
Procedure: (§2) Pre-Emergence Test/Greenhouse Solvent: 5 parts by weight of acetone Emulsifier: 1 part by weight of alkylaryl polyglycol ether To produce a suitable preparation of active compound, 1 part by weight of active compound is mixed with the stated amount of solvent, the stated amount of emulsifier is added and the concentrate is diluted with water to the desired concentration. Seeds of the test plants are sown in normal soil. After about 24 hours, the soil is sprayed with the preparation of active compound such that the particular amount of active compound desired is applied per unit area. The concentration of the spray liquor is chosen so that the particular amount of active compound desired is applied in 500 ml of water per hectare. After three weeks, the degree of damage to the plants is assessed in % damage in comparison to the development of the untreated control. The figures denote: • 0%=no effect (like untreated control) • 100%=total destruction

Setaria [5] = assay: Pre-emergence test/greenhouse; conditions: 250 g ai./ha, after three weeks
Procedure: as §2

Avena [6] = assay: Pre-emergence test/greenhouse; conditions: 504 h, 250 g ai./ha, after three weeks, read-out: degree of damage, Avena
Procedure: as §2

SMILES | pest or weed control at 250 g/ha (Alopecurus [1]) [%] | degree of damage, Setaria (Setaria [2]) [%] | degree of damage, Avena (Avena [3]) [%] | pest or weed control at 250 g/ha (Alopecurus [4]) [%] | degree of damage, Setaria (Setaria [5]) [%] | pest or weed control at 250 g/ha (Avena [6]) [%]
COc1nn(C(=O)NS(=O)(=O)c2ccccc2OC(F)(F)C(F)F)c(=O)n1C [(G), 2-[2-(1,1,2,2-Tetrafluoroethoxy)-phenylsulphonylaminocarbonyl]-4-methyl-5-methoxy-2,4-dihydro-3H-1,2,4-triazol-3-one] | 30 | 30 | 0 | 50 | 50 | 0
COc1nn(C(=O)NS(=O)(=O)c2ccccc2OC(F)(F)C(F)(F)F)c(=O)n1C [(H), 2-[2-(Pentafluoroethoxy)-phenylsulphonylaminocarbonyl]-4-methyl-5-methoxy-2,4-dihydro-3H-1,2,4-triazol-3-one] | 40 | 20 | 80 | – | – | –
